# Results as given in patent publication US8513010B2, “Dendritic cells pulsed with a bisphosphonate” (Medinet Co. Ltd., priority 2004, dated 2013).
# Key:
# γδ T-cells [1] = assay: Culture of peripheral blood mononuclear cells with Aredia and IL-2, phenotype by flow cytometer (Example 4); format: cell-based, human; settings: peripheral blood monocyte suspension, Aredia 10 μM, IL-2 1,000 U/ml, cultivated 14 days
# Method: From a healthy donor 30 ml of peripheral blood was collected, and peripheral blood mononuclear cells were collected using a density gradient medium for blood cell separation. The cells collected were washed several times to remove platelets and the like.
# The peripheral blood monocytes obtained were suspended in AIM-V medium (10% FCS), and Aredia was added so that the concentration in the peripheral blood monocyte suspension was 10 μM.
# This was cultivated for 14 days. During this period, AIM-V (10% FCS) medium and IL-2, at a final concentration of 1,000 U/ml, were added in accordance with the cell proliferation.
# Using a flow cytometer, the phenotype of the cells cultured was confirmed to be a cell subset containing at least 95% of γδ T-cells.
# γδ T-cells [2] = assay: IFN-γ ELISpot confirming activation of γδ T-cells (Example 5); format: cell-based, human; settings: 30,000 γδ T-cells + 15,000 immature or mature dendritic cells + Aredia 10 μM, versus γδ T-cells alone, γδ T-cells with Aredia only, FIG. 2
# Method: In each well of a MultiScreen plate (Millipore), 70% ethanol was added and removed within two minutes.
# An anti-interferon(IFN)-γ antibody for coating (clone: 1-D1K, MABTECH ELISpot for Human Interferon-γ kit) was diluted with PBS to 15 μg/ml, and added 100 μl/well.
# The γδ T-cells obtained in Example 4 were collected by centrifugation and washed twice with AIM-V.
# To 30,000 of the γδ T-cells collected, and 15,000 of the immature or mature dendritic cells obtained in Example 1 Aredia, prepared to have a final concentration of 10 μM, was added, and precultivated in a 15 ml tube (Falcon) under the conditions of 37° C. and 5% CO2 for two hours. At the same time, precultivation of γδ T-cells by themselves, precultivation of γδ T-cells with only Aredia added thereto, and precultivation of the respective dendritic cells by themselves were also conducted. Each culture volume was adjusted to 300 μl.
# The plate was washed with PBS after blocking, and each group of cells which completed precultivation under the respective conditions was disseminated in three wells, 100 μl/well.
# They were cultured overnight under the conditions of 37° C. and 5% CO2. […]
# After confirming that the membrane on the plate was dry, the number of spots was measured using an ELISpot reader (AID Autoimmune Diagnostika GmbH), and the data was analyzed using the AID software version 3.1 (AID).
structure (smiles),measurement,setting,value
"NCCC(O)(P(=O)([O-])O)P(=O)([O-])O.O.O.O.O.O.[Na+].[Na+] [Aredia, pamidronate disodium pentahydrate]",γδ T-cells in the cultured cell subset,γδ T-cells [1],at least 95%
same,number of spots (IFN-γ ELISpot),γδ T-cells [2],increased only when the dendritic cells and Aredia were added simultaneously to the γδ T-cells
same,spot intensity (IFN-γ ELISpot),γδ T-cells [2],increased only when the dendritic cells and Aredia were added simultaneously to the γδ T-cells
